Drawing on article PMC10340592, “Extraction Efficiency and Alpha-Glucosidase Inhibitory Activities of Green Tea Catechins by Different Infusion Methods” (Foods, 2023), this text covers IC50 for ten compounds.

One experiment has as its target rat alpha-glucosidase. The experiment can be described thus: Inhibitory activity on rat alpha-glucosidase (rat intestinal acetone powder enzyme, maltose substrate, glucose read-out). It counts as biochemical. The settings on record: mean ± SD. The procedure:
Inhibitory activity on rat alpha-glucosidase was measured as described previously with some modification. Rat alpha-glucosidase protein solution was extracted from rat intestinal acetone powders using the ultrasonication method. Briefly, 100 mg of intestinal acetone powders from rats were added to 1.0 mL of a 0.1 M maleic acid/disodium maleate buffer solution at pH 6.0. Then, one cycle of 30 s of ultrasonication and 30 s of break were repeated 6 times in ice-cold water, and the residue was separated by centrifugation (3000 rpm, 30 min, 4 °C). The supernatant was collected as the enzyme solution for experiments. Then, 50 µL of 4% maltose (w/v) and 25 µL of sample solution (GTEs or catechins) were added to a microtube and preincubated at 37 °C for 3 min. After that, 25 µL of the above enzyme solution was added and incubated at 37 °C for 30 min. Consequently, 400 µL of ultrapure water was added and inactivated at 100 °C for 4 min. After 100 µL of the inactivated reaction solution and 150 µL of color reagent (LabAssay™ Glucose kit) were mixed, the glucose contents (mg/dL) were measured at 505 nm through the spectrometer (Infinite 200 Pro MPlex, Tecan Ltd., Männedorf, Switzerland) according to the manufacturer’s instructions with the standard glucose curve. […] The inhibitory activity of each sample was calculated as follows:Inhibitory activity (%) = 100 − {(Cs − Csb)/(Cc − Cb)} × 100 • Cc: Glucose content of the negative control; • Cb: Glucose content of the blank; • Cs: Glucose content of the sample; • Csb: Glucose content of the sample blank.

The target of another experiment is T1, human alpha-glucosidase (Homo sapiens, UniProt P14410).
T1 construct: cultured for 14 days to differentiate into small intestinal epithelial-like cells; host or cells: differentiated Caco-2 cells
T1 sequence (P14410 whole entry): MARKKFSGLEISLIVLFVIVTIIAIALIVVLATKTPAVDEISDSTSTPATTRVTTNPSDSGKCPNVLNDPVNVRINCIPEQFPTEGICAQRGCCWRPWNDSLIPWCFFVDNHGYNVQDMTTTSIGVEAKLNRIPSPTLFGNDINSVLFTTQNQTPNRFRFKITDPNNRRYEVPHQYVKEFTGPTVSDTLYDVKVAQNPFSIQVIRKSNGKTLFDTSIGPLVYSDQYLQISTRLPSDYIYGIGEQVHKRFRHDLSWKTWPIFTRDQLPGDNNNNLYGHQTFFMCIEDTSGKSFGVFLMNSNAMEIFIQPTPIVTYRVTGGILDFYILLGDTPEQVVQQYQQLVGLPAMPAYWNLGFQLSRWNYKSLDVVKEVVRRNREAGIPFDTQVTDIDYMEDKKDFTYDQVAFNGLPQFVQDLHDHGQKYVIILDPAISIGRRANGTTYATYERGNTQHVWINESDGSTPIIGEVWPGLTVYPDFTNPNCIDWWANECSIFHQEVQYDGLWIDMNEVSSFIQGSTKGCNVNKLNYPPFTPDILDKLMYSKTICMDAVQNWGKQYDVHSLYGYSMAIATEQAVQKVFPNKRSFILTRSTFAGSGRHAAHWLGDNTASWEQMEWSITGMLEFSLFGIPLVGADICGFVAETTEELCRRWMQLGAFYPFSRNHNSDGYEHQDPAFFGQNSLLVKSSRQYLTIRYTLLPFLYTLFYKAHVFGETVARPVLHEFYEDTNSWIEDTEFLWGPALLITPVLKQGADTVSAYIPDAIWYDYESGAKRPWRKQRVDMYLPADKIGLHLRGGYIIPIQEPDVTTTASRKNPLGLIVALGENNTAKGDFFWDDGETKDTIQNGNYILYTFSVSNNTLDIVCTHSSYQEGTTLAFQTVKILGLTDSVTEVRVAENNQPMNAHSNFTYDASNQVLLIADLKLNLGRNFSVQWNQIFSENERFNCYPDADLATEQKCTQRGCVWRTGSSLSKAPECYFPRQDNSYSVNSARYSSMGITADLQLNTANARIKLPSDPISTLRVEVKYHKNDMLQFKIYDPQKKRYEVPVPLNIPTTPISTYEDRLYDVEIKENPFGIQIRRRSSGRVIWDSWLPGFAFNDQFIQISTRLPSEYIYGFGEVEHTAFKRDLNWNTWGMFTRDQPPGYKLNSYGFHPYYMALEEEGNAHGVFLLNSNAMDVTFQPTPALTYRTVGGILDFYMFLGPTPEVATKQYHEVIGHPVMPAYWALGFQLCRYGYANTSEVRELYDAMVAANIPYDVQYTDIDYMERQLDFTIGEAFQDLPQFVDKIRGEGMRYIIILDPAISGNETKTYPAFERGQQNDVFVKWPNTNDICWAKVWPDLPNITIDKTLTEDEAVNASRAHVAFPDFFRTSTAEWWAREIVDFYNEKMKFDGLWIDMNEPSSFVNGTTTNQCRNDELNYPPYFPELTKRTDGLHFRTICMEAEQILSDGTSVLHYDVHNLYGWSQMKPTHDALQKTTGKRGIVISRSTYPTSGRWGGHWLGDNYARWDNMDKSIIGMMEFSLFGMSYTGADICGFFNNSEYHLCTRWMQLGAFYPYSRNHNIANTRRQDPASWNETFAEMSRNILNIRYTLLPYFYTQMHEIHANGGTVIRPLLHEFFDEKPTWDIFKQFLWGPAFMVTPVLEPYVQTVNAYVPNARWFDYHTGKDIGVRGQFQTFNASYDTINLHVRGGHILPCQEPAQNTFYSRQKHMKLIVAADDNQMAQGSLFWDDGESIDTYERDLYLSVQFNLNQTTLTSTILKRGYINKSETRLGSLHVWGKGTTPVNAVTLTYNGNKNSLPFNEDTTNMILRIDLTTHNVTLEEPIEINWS
The experiment can be described thus: Inhibitory activity on human alpha-glucosidase in differentiated Caco-2 cells (maltose substrate). It counts as cell-based. The settings on record: mean ± SD. The protocol:
Inhibitory activity on human alpha-glucosidase was measured using differentiated Caco-2 cells as described previously with some modification. Briefly, Caco-2 cells were purchased from Riken Bioresource Research Center (Tsukuba, Japan) and cultured in Minimal Essential Medium (MEM) supplemented with 20% fetal bovine serum, 1% penicillin-streptomycin-glutamine, and 1% non-essential amino acids at 37 °C in an atmosphere of 5% CO2. After passaging, cells (2.0 × 10^4 cells/well) were seeded in 48-well plates and cultured for 14 days to differentiate into small intestinal epithelial-like cells. After 14 days, cells were washed twice with PBS, and 150 µL of sample solution at each concentration as well as 150 µL of 3 mM maltose were added. Each sample and maltose solution were dissolved in PBS. The cells were further incubated for 2 h at 37 °C in an atmosphere of 5% CO2. Then, 100 µL of cell culture supernatant was mixed with 150 µL of color reagent and measured at 505 nm through the spectrometer (Infinite 200 Pro MPlex, Tecan Ltd., Männedorf, Switzerland). The inhibitory activity of the sample was calculated in the same way as in the rat alpha-glucosidase experiment.

One may read the IC50 as the concentration that inhibits the measured activity by half. As for `Oc1cc(O)c2c(c1)O[C@H](c1cc(O)c(O)c(O)c1)[C@H](O)C2` [EGC, (−)-epigallocatechin], the IC50 at rat alpha-glucosidase was 713 ± 35.3 µM; against human alpha-glucosidase, 214 ± 3.8 µM. As for `Oc1cc(O)c2c(c1)O[C@H](c1ccc(O)c(O)c1)[C@H](O)C2` [EC, (−)-epicatechin], the half-inhibitory concentration (IC50) on rat alpha-glucosidase was 675 ± 15.7 µM; at human alpha-glucosidase it was 134 ± 2.2 µM. In the case of `O=C(O[C@@H]1Cc2c(O)cc(O)cc2O[C@H]1c1cc(O)c(O)c(O)c1)c1cc(O)c(O)c(O)c1` [GCg, (−)-gallocatechin-3-gallate], the half-maximal inhibitory concentration (IC50) at rat alpha-glucosidase turned out to be 161 ± 2.4 µM. For the compound `Oc1cc(O)c2c(c1)O[C@@H](c1cc(O)c(O)c(O)c1)[C@H](O)C2` [GC, (−)-gallocatechin], the half-inhibitory concentration (IC50) at rat alpha-glucosidase came out at 798 ± 26.8 µM. Turning to `O=C(O)c1cc(O)c(O)c(O)c1` [GA, gallic acid, reference compound], the half-maximal inhibitory concentration (IC50) at rat alpha-glucosidase was found to be 1030 ± 64.5 µM. Turning to `O=C(O[C@@H]1Cc2c(O)cc(O)cc2O[C@H]1c1ccc(O)c(O)c1)c1cc(O)c(O)c(O)c1` [Cg, (−)-catechin-3-gallate], on rat alpha-glucosidase, the IC50 is 112 ± 7.8 µM. For the compound `O=C(O[C@@H]1Cc2c(O)cc(O)cc2O[C@@H]1c1ccc(O)c(O)c1)c1cc(O)c(O)c(O)c1` [ECg, (−)-epicatechin-3-gallate], the IC50 was 96.9 ± 4.5 µM on rat alpha-glucosidase and 78.4 ± 15.2 µM at human alpha-glucosidase.

On to `Oc1cc(O)c2c(c1)O[C@H](c1ccc(O)c(O)c1)[C@@H](O)C2` [(+)C, (+)-catechin], for which, on rat alpha-glucosidase, the IC50 was found to be 1200 ± 79.6 µM. Take `C[C@H]1O[C@H](O[C@H]2[C@H](O)[C@@H](O)[C@@H](O[C@H]3[C@H](O)[C@@H](O)C(O)O[C@@H]3CO)O[C@@H]2CO)[C@H](O)[C@@H](O)[C@@H]1N[C@H]1C=C(CO)[C@@H](O)[C@H](O)[C@H]1O` (some centres unmarked) [acarbose, reference compound]: the half-inhibitory concentration (IC50) at rat alpha-glucosidase is 2.17 ± 0.23 µM.

Consider `O=C(O[C@@H]1Cc2c(O)cc(O)cc2O[C@@H]1c1cc(O)c(O)c(O)c1)c1cc(O)c(O)c(O)c1` [EGCg, (−)-epigallocatechin-3-gallate], for which the IC50 is 46 ± 3.73 µM on rat alpha-glucosidase and 90.7 ± 15.8 µM against human alpha-glucosidase.
